Laboratory results: PMC8710297, “Identification of potent SENP1 inhibitors that inactivate SENP1/JAK2/STAT signaling pathway and overcome platinum drug resistance in ovarian cancer” (Clinical and Translational Medicine, 2021)
pIC50: −log10 of the molar value.

Tests used:
SENP1 [1] = molecular target: T1, SENP1 (Homo sapiens, UniProt Q9P0U3); experiment: In vitro deSUMOylation assay (SUMOylated His-JAK2 + recombinant GST-SENP1); type: biochemical; conditions: read-out: SENP1 inhibition in vitro IC50
T1 sequence (Q9P0U3 1-644): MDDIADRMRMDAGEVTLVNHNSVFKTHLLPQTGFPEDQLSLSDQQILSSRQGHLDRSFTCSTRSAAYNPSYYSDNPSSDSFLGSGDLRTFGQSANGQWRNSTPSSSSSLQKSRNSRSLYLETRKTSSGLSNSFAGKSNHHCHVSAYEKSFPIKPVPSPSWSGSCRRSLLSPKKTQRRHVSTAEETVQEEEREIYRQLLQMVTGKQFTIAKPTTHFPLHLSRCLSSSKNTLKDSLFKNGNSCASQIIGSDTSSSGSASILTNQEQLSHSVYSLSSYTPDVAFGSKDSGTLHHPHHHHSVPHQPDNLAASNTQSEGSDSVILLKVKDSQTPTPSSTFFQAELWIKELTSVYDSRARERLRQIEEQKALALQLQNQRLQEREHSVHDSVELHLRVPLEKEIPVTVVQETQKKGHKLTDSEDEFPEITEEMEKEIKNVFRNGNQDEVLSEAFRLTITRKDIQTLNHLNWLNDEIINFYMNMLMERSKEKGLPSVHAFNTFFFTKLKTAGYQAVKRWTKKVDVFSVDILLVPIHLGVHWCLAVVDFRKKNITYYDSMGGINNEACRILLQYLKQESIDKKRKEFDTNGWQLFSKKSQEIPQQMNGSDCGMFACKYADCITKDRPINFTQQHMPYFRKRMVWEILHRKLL
Description: (A) Collection of Momordin Ic (Mc) natural compound analogues. […] Cell proliferation was determined by the sulforhodamine B (SRB) assay. […] IGROV1 CR cells were incubated with Mc at indicated concentrations for 48 h and then harvested for Western blot for indicated proteins. […] IGROV1 CR cells were incubated with UA and then treated as in C. […] Intensity of SUMOylated JAK2 was measured by Quantity One software. […] Recombinant His‐JAK2 was SUMOylated by in vitro SUMOylation assay, and then SUMOylated JAK2 proteins were incubated with or without recombinant GST‐SENP1 together with Mc for 3 h. […] In vitro assay was performed as in (F). […]

SENP1 [2] = molecular target: T1, SENP1; experiment: SENP1 activity in cells (SUMOylated JAK2, Western blot quantification); type: cell-based; set-up: endogenous in cells; host or cells: IGROV1 CR cells; conditions: IGROV1 CR cells, 48 h
Description: (A) Collection of Momordin Ic (Mc) natural compound analogues. […] Cell proliferation was determined by the sulforhodamine B (SRB) assay. […] IGROV1 CR cells were incubated with Mc at indicated concentrations for 48 h and then harvested for Western blot for indicated proteins. […] IGROV1 CR cells were incubated with UA and then treated as in C. […] Intensity of SUMOylated JAK2 was measured by Quantity One software. […] Recombinant His‐JAK2 was SUMOylated by in vitro SUMOylation assay, and then SUMOylated JAK2 proteins were incubated with or without recombinant GST‐SENP1 together with Mc for 3 h. […] In vitro assay was performed as in (F).
(A) Synthesis of UA derivatives. Reagents and conditions: (i) Ac2O, DMAP, Pyridine, r.t.; (ii) Oxalyl chloride, CH2Cl2, r.t., overnight; (iii) amines, TEA, r.t., 0.5–4 h; (iv) NaOH a.q., MeOH/THF, r.t.; (v) amines, MeOH, reflux; (vi) K2CO3, DMF, 60°C. The detail of synthesis was included in supplemental materials. […] (C) IGROV1 CR cells treated with indicated UAMMC9 for 48 h. Cells were then harvested and lysates were resolved on sodium dodecyl sulphate‐polyacrylamide gel electrophoresis, followed by immunoblotting for indicated proteins. (D) Cellular thermal shift assay to examine the interaction of UAMMC9 with SENP1. IGROV1 CR cells were incubated with DMSO or UAMMC9 for 4 h before treatment as in Figure 2A. (E) In vitro thermal shift assay to analyze the interactions of UAMMC9 with purified GST‐SENP1(C603A). Stability of SENP1(C603A) was analyzed by using Western blot against SENP1 antibody. […] Surface of hydrophobic amino acid residues in catalytic cleft was shown in yellow and that of hydrophilic amino acid residues was shown in magenta. Key amino acid residues were highlighted. […] The pictures were generated by Chimera.

[3] = recombinant GST-SENP1, SUMOylated His-JAK2, 3 h
[4] = intensity of SUMOylated JAK2, read-out: SENP1 inhibition in cells IC50

pIC50 (SENP1 [1]; [3]) | pIC50 (SENP1 [2]; [4]) | pIC50 (SENP1 [1]; recombinant SENP1, SUMOylated JAK2) | pIC50 (SENP1 [2]; SUMOylated JAK2, read-out: SENP1 activity in cells IC50) | SMILES
4.70 | 4.50 |  |  | CC1(C)CC[C@]2(C(=O)O)CC[C@]3(C)C(=CC[C@@H]4[C@@]5(C)CC[C@H](O[C@@H]6O[C@H](C(=O)O)[C@@H](O)[C@H](O[C@@H]7OC[C@@H](O)[C@H](O)[C@H]7O)[C@H]6O)C(C)(C)[C@@H]5CC[C@]43C)[C@@H]2C1 [Mc, Momordin Ιc]
8.19 | 6.62 |  |  | C[C@H]1[C@H](C)CC[C@]2(C(=O)O)CC[C@]3(C)C(=CC[C@@H]4[C@@]5(C)CC[C@H](O)C(C)(C)[C@@H]5CC[C@]43C)[C@H]12 [UA, ursolic acid, reference compound]
 |  | 6.71 | 6.82 | C[C@H]1[C@H](C)CC[C@]2(C(=O)NCC(=O)N(C)CCO)CC[C@]3(C)C(=CC[C@@H]4[C@@]5(C)CC[C@H](O)C(C)(C)[C@@H]5CC[C@]43C)[C@H]12 [UAMMC9]
